Results as given in patent US6352966B1, “Cleansing bars” (Albemarle Corporation, priority 2000, dated 2002).

How the values were obtained:
Type in all cases: physicochemical
[1] = Surface tension in ionic buffer solution; details: 0.02 normal aqueous potassium nitrate solution at 25° C.
Text: Also shown in Table 1 are the corresponding values for the partially neutralized monosodium salts of the corresponding alk(en)yl succinic acids.

[2] = Reflectance of cleansing bars; details: bar; the higher the reflectance the whiter the bar
Procedure: (§1) The desirable properties of cleansing bars formed from fully neutralized sodium salts of various alkenyl succinic acids of this invention were determined in a further series of comparative tests. In these tests both the reflectance and the bar hardness were determined. In addition to testing bars of five different fully neutralized succinate salts of this invention, the same properties were measured on four fully compounded commercial soap bars from different well-known soap manufacturers. As can be appreciated, the higher the reflectance the whiter the bar, and the higher the hardness, the more desirable is the bar. In Table 2, the five fully neutralized alkenyl succinic acids are identified in terms of the number of carbon atoms in the alkenyl group. Thus, for example, C6 SAS represents the fully neutralized disodium salt of n-hexenyl succinic acid. As regards reflectance, Commercial Bar B is pink in color, and Commercial Bar C is a coral-orange in color. The other two commercial bars are white.

[3] = Bar hardness of cleansing bars; details: the higher the hardness, the more desirable
Procedure: as §1

Molecule | surface tension [1] [millinewtons per meter] | Reflectance [2] | Bar Hardness [3]
CCCCCCCCC(CC(=O)O)C(=O)[O-].[Na+] (stereo not drawn) [Monosodium n-octylsuccinate, reference compound] | 26.64 |  | 
CCCCCCCCCCC(CC(=O)O)C(=O)[O-].[Na+] (stereo not drawn) [Monosodium n-decylsuccinate, reference compound] | 26.32 |  | 
Disodium n-tetradecenylsuccinate | 26 | 74 | 144
Monosodium n-dodecenylsuccinate [reference compound] | 26.32 |  | 
CCCCCCCCC(CC(=O)[O-])C(=O)[O-].[Na+].[Na+] (stereo not drawn) [Disodium n-octylsuccinate] | 26 |  | 
Monosodium n-tetradecenylsuccinate [reference compound] | 26 |  | 
Disodium n-dodecenylsuccinate | 25.8 | 87 | 132
CCCCCCCCCCC(CC(=O)[O-])C(=O)[O-].[Na+].[Na+] (stereo not drawn) [Disodium n-decylsuccinate] | 26 |  | 
